Assay results reported in ChEMBL document CHEMBL1201862, “PubChem BioAssay data set” (2004).
The source made the active and inactive calls.

Key:
[1] = fluconazole-exposed Candida albicans growth modulators – fluorescence, retest, confirmation (AID 2467); type: functional, cell-based
[2] = biological target: Serine/threonine-protein phosphatase (Candida dubliniensis (strain CD36 / CBS 7987 / NCPF 3949 / NRRLY-17841) (Yeast), UniProt B9W6M3); test: blockers of CaCl2-induced CDRE-lacZ signaling – S. cerevisiae, luminescence, secondary, dose response (AID 2388); type: functional, cell-based;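 also: yeast reporter cells carrying a calcineurin-responsive lacZ construct stimulated with calcium chloride; luminescent beta-galactosidase reporter signal in whole cells rather than isolated phosphatase activity; potency for inhibition where a drop in reporter signal means calcineurin blockade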
[3] = biological target: ATP-dependent molecular chaperone HSP82 (Candida albicans (strain WO-1) (Yeast), UniProt C4YTQ8); test: steroid-induced GRE reporter decrease in yeast – S. cerevisiae, luminescence, Hsp90 inhibitor project, dose response (AID 2400); type: functional, cell-based;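 also: beta-galactosidase luminescence from glucocorticoid response element reporter as proxy for Hsp90 function; inhibitor potency where signal loss means Hsp90 inhibition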
[4] = NIH-3T3 fibroblast cytotoxicity, dose response, cytotoxicity control, cell-based, fluorescence, Alamar Blue, secondary assay (AID 2327); type: functional;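 also: NIH-3T3 mouse fibroblasts cultured with fluconazole at 8 µg/mL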
[5] = system: Escherichia coli; test: microbe, parasite or virus in culture
[6] = system: Escherichia coli; test: microbe, parasite or virus in culture; remark: listed apart in the source
[7] = system: Streptococcus; test: GAS UMAA2166 growth inhibition – luminescence, BacTiterGlo, counter-screen for streptokinase expression inhibitor project, dose response (AID 1915); type: functional, organism-based;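 also: potency for reduction of bacterial viability or growth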
[8] = Vero E6 cell cytotoxicity, dose response, cytotoxicity control for non-replicating M. tuberculosis project, secondary assay (AID 492998); type: functional, VeroE6; details: Vero C1008
[9] = biological target: Heat shock protein HSP 90-alpha (Homo sapiens, UniProt P07900); type: functional, organism-based
[10] = system: Vero; test: cells; type: functional; details: Chlorocebus sabaeus
[11] = system: Vero; test: cells; type: functional, cell-based; details: Chlorocebus sabaeus
[12] = THP-1 cell cytotoxicity, dose response, cytotoxicity control for non-replicating M. tuberculosis project (AID 489025); type: functional
[13] = biological target: T1, Short transient receptor potential channel 4 (Mus musculus, UniProt Q9QUQ5); test: calcium entry via TRPC4 opening agents – cell-based, HEK293 TRPC4/mu-opioid, Fluo-4 calcium, dose response (AID 434937); type: functional
T1 sequence (Q9QUQ5 whole entry): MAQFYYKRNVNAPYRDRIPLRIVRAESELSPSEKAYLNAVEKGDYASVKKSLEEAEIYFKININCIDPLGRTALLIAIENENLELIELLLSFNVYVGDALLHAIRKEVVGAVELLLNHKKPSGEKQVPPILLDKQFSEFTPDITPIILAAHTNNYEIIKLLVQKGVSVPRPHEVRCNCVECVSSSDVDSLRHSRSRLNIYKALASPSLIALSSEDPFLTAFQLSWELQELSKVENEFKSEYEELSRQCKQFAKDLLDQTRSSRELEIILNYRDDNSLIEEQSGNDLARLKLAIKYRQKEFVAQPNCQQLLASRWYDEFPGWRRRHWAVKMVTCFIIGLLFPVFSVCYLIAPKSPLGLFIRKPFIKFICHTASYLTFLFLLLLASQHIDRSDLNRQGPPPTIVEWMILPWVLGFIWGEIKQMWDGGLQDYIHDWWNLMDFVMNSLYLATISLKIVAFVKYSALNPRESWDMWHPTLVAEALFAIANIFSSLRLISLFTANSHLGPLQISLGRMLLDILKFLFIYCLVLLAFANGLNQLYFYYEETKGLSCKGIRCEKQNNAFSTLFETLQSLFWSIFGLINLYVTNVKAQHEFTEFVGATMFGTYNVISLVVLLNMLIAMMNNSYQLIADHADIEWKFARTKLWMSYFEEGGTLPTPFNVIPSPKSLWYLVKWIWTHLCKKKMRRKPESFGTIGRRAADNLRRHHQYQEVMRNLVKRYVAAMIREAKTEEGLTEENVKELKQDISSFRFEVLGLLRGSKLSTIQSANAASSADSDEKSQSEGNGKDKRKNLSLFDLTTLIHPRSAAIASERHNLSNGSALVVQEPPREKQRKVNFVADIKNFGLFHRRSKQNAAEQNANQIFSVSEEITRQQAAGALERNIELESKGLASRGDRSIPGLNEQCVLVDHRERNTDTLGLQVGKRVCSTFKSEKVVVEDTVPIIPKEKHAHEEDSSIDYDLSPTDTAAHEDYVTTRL

[14] = HepG2 cell cytotoxicity, dose response, cytotoxicity control for non-replicating M. tuberculosis project (AID 489018); type: functional; details: Mycobacterium tuberculosis
[15] = cells; type: functional
[16] = HGIII-sPLA2 enzyme inhibition potency – biochemical, QFRET, IC50, dose response (AID 743457);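 also: green fluorescence rise as the enzyme cleaves BODIPY PC-A2 in liposomes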
[17] = system: Streptococcus sp. 'group A'; test: Streptococcus pyogenes SK(-)GAS viability under kanamycin – luminescence, BacTiterGlo, confirmation, counter-screen for streptokinase expression inhibitor project, dose response (AID 1900); type: functional, organism-based
[18] = biological target: T2, Bcl-2-related protein A1 (Mus musculus, UniProt Q07440); type: functional;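 also: confirmatory dose–response counterscreen on Bfl-1, used to check hits from a UBC13 polyubiquitin inhibitor campaign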
T2 sequence (Q07440 whole entry): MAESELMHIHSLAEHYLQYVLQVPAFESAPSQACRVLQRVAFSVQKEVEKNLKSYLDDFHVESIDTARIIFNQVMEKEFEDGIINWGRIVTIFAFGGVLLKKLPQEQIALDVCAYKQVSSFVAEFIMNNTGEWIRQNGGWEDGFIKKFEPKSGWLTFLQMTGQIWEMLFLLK

[19] = biological target: T3, Ubiquitin-conjugating enzyme E2 N (Homo sapiens, UniProt P61088); type: functional
T3 sequence (P61088 whole entry): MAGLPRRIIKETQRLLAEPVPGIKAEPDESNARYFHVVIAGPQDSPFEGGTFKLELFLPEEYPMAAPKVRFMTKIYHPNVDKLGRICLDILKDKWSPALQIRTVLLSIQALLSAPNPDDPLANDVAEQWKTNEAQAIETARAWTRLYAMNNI

[20] = biological target: T3, Ubiquitin-conjugating enzyme E2 N; type: functional; remark: listed apart in the source
[21] = biological target: T4, Rac GTPase-activating protein 1 (Homo sapiens, UniProt Q9H0H5); test: blockers of MgcRacGAP-driven Rac1 GTP hydrolysis – biochemical, ADP Hunter fluorescence, primary and confirmatory, confirmation (AID 624330); type: functional
T4 sequence (Q9H0H5 whole entry): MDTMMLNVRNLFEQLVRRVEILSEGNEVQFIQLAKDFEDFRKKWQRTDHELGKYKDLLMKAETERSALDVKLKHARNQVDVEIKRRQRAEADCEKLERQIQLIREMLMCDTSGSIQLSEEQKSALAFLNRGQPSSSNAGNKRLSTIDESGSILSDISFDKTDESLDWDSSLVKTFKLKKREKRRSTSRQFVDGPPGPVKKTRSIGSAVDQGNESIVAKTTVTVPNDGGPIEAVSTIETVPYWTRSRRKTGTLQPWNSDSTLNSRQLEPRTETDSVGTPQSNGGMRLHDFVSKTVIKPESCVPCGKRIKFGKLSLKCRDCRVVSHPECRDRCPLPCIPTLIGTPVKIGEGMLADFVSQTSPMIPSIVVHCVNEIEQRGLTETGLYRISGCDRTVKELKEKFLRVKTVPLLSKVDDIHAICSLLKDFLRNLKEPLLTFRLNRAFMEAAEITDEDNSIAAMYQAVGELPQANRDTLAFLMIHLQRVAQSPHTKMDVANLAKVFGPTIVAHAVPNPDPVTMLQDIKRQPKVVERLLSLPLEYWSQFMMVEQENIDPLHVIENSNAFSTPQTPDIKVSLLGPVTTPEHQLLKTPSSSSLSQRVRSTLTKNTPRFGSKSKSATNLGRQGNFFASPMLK

[22] = biological target: T5, Small ubiquitin-related modifier 1 (Homo sapiens, UniProt P63165); test: SUMO1 protein interaction blockers, potency – biochemical, fluorescence polarization, uHTS hits, dose response (AID 624382); type: functional; details: read-out: IC50_Mean
[23] = biological target: T5, Small ubiquitin-related modifier 1; test: SUMO1 protein-protein binding blockers, potency – biochemical, FRET, dose response (AID 624383); type: functional; details: read-out: IC50_Mean
[24] = biological target: Cysteine protease ATG4B (Homo sapiens, UniProt Q9Y4P1); type: functional;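 also: Fluorescence-based dose-response confirmation assay measuring inhibition of ATG4B activity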
[25] = biological target: T6, Calpain-2 catalytic subunit (Sus scrofa, UniProt P43367); test: m-calpain protease blockers, concentration series – biochemical, fluorogenic peptide substrate, dose response (AID 1420); type: functional
T6 sequence (P43367 whole entry): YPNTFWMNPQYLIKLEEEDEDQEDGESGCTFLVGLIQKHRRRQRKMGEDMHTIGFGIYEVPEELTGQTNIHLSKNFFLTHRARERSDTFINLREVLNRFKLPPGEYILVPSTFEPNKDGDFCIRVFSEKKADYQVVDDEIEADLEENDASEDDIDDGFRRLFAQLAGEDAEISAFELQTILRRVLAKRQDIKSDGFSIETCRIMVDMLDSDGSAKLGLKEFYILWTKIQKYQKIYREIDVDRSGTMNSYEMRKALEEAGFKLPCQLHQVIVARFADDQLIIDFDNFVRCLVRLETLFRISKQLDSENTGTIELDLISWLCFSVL

[26] = biological target: Phospholipase A2 (Homo sapiens, UniProt P04054); type: functional;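 also: confirmatory dose-response counterscreen on phospholipase A2, testing hits that came from an ultra-high-throughput screen for ATG4B inhibitors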
[27] = system: A-375; test: MITF: Counter assay: A375 proliferation Measured in Cell-Based System Using Plate Reader - 2084-03_Inhibitor_Dose_DryPowder_Activity. [Related pubchem assays (depositor defined):AID488944]; type: functional; details: Homo sapiens
[28] = system: A-375; test: proliferation inhibition in MITF-low A375 cells – cell-based, cherry-pick samples, set 2, counter-screen for MITF modulator project, dose response (AID 540335); type: functional; details: Homo sapiens
[29] = system: P388/ADR; test: cells; type: functional; details: Mus musculus
[30] = biological target: T7, Microphthalmia-associated transcription factor (Homo sapiens, UniProt O75030); test: reducers of TRPM1 reporter luminescence, concentration series – cell-based, SK-MEL-5, cherry-picked, set 3, MITF inhibitor project, dose response (AID 493073); type: functional;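 also: SK-MEL-5 melanoma cells with luciferase driven by the MITF target TRPM1 promoter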
T7 sequence (O75030 whole entry): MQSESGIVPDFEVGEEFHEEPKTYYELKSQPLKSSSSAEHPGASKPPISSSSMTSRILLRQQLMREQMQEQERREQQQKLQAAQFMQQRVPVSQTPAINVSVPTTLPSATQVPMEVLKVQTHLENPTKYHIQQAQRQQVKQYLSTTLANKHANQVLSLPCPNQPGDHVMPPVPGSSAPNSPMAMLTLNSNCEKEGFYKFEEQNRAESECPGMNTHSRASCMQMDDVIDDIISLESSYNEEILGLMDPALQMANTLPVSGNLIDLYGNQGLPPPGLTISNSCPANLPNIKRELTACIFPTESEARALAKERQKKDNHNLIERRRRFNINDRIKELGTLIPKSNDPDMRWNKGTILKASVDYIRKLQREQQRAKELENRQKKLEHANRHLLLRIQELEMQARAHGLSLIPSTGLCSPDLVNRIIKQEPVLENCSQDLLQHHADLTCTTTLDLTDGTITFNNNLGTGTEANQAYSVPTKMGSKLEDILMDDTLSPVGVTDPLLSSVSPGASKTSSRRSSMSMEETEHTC

[31] = system: SN12K1; test: cells; type: functional; details: Homo sapiens
[32] = system: P388; test: cells; type: functional; details: Mus musculus

T5 sequence (P63165 whole entry): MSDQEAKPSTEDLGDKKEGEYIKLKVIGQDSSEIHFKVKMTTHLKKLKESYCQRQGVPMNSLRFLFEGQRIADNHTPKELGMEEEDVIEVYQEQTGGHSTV
Chain of Phospholipase A2 (P04054 whole entry): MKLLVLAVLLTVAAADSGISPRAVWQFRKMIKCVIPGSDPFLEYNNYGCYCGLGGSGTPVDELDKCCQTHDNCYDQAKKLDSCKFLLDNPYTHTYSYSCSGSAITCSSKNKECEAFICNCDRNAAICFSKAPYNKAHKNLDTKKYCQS
Chain of Serine/threonine-protein phosphatase (B9W6M3 whole entry): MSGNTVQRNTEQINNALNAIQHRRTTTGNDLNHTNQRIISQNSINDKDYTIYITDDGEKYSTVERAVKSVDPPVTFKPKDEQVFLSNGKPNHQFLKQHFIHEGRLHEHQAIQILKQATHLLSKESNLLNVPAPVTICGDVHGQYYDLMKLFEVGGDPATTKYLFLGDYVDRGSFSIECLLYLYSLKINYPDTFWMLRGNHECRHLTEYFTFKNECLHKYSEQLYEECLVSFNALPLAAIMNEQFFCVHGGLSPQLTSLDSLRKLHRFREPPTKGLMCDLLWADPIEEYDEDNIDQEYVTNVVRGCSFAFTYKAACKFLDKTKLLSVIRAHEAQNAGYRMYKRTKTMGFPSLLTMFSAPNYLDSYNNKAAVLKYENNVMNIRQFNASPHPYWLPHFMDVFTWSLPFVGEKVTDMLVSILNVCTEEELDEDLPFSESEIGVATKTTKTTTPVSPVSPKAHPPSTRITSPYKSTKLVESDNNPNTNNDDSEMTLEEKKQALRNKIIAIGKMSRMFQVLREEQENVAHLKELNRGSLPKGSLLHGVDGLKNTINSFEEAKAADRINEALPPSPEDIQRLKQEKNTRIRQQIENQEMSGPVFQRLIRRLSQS
Chain of ATP-dependent molecular chaperone HSP82 (C4YTQ8 whole entry): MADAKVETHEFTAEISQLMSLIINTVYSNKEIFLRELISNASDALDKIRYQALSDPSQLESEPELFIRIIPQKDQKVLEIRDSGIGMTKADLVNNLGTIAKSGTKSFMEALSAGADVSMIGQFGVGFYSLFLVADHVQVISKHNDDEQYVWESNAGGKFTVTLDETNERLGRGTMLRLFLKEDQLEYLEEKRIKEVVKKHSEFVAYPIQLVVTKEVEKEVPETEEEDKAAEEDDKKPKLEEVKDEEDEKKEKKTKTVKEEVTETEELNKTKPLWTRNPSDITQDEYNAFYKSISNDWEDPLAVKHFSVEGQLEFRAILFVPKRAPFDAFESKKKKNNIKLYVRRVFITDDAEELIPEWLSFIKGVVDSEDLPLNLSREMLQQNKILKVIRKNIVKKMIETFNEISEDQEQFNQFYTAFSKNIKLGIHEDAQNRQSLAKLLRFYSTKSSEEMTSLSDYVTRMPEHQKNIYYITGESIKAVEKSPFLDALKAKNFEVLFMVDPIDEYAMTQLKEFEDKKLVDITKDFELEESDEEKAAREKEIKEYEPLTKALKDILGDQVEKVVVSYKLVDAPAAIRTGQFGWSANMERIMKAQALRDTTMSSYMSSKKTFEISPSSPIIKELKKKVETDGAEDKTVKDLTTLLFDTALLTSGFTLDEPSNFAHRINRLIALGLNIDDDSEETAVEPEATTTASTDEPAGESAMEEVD
Chain of Cysteine protease ATG4B (Q9Y4P1 whole entry): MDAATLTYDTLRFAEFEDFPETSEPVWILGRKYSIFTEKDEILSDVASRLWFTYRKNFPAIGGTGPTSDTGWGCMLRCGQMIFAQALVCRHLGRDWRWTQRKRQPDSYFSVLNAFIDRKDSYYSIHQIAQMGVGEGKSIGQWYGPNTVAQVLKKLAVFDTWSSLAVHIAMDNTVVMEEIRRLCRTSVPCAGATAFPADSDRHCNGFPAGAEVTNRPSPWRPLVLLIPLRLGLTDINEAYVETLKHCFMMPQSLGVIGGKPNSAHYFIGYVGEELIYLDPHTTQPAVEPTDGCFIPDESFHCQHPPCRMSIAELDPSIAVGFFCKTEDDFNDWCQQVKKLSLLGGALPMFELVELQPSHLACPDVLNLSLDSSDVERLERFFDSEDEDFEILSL

Compound: COc1ccc(C(=O)NNC(=S)NC(=O)c2ccc(Cl)cc2)cc1
- EC50 [1]: 0.275 µM (active)
- EC50 [2]: > 180 µM (inactive)
- EC50 [3]: 13.9 µM (active)
- EC50 [4]: > 160 µM (inactive)

Compound: COc1cc(-c2noc(-c3ccccc3C(=O)NCc3ccco3)n2)cc(OC)c1OC
- AC50 [5]: 40.5 µM (active)
- AC50 [6]: 71.1 µM (active)

Compound: CC(Oc1ccc(Cl)cc1)C(=O)NNC(=S)NC(=O)c1ccco1 (stereo unspecified)
- EC50 [7]: 2.29 µM (active)
- CC50 [8]: 11.2 µM (active)
- AC50 [9]: 1.41 µM (active)
- CC50 [10]: > 25 µM (active)
- IC50 [11]: > 25 µM (active)
- CC50 [12]: 13.7 µM (active)
- EC50 [13]: 5.31 µM (active)
- CC50 [14]: > 20 µM (active)
- IC50 [15]: 9.22 µM (active)
- IC50 [16]: 34.9 µM (inactive)
- EC50 [17]: 0.571 µM (active)

Compound: O=C(Nc1ccc(C2=NCCN2)cc1)c1ccc(C(=O)Nc2ccc(C3=NCCN3)cc2)c([N+](=O)[O-])c1
- IC50 [18]: 4.88 µM (active)
- IC50 [19]: 2.17 µM (active)
- IC50 [20]: 3.11 µM (active)
- IC50 [21]: 33.1 µM (active)
- IC50 [22]: > 66.6 µM (inactive)
- IC50 [23]: 3.28 µM (active)
- AC50 [6]: 243 µM (active)

Compound: COc1cnc(SCc2c(Cl)cccc2Cl)nc1Cl
- IC50 [24]: 7.76 µM (active)
- IC50 [25]: < 0.4 µM (not active)
- IC50 [26]: 7.65 µM (active)

Compound: COc1ccc(/C=C/c2cc(C(F)(F)F)on2)cc1
- AC50 [27]: > 35 µM (active)
- AC50 [28]: > 35 µM (active)

Compound: CN(C)CC1CC/C(=C\c2ccc(O)cc2)C1=O (stereo unspecified)
- AC50 [27]: > 35 µM (active)
- GI50 [29]: 1.69 µM (inactive)
- AC50 [9]: 4.38 µM (active)
- AC50 [28]: > 35 µM (active)
- AC50 [30]: 12.9 µM (active)
- GI50 [31]: 1.78 µM (inactive)
- GI50 [32]: 0.491 µM (active)
